From patent US10517889B2, “Modulators of SMAD7 expression” (Ionis Pharmaceuticals, Inc., priority 2017, dated 2019)
Strand notation (5' to 3'): a small letter for the sugar, then the base; units joined by * are phosphorothioate-linked, units joined directly phosphodiester-linked; [ ] holds rarer units or linkages, { } end groups; capitals alone tell only the bases. k = constrained ethyl (cEt); [5mC] = 5-methylcytosine; d = 2'-deoxy (DNA)

tested on: human SMAD7 mRNA; test: Antisense inhibition of human SMAD7 mRNA expression in Hep3B cells by 3-10-3 cEt gapmers, 10,000 nM, electroporation (Example 2); assay type: cell-based; settings: Hep3B cells, 10,000 nM antisense oligonucleotide, electroporation, approximately 24 hours, RT-PCR primer probe set RTS5062, relative to untreated control cells
Procedure: Antisense oligonucleotides were designed to target human SMAD7 mRNA and were tested for their effects on SMAD7 mRNA expression in vitro. The antisense oligonucleotides were tested in a series of experiments that had similar culture conditions, as described below. ION 771576, described in the studies above and which is a 5-10-5 MOE gapmer, was also included in these assays. Cultured Hep3B cells at a density of 20,000 cells per well were transfected using electroporation with 10,000 nM antisense oligonucleotide. After a treatment period of approximately 24 hours, RNA was isolated from the cells and SMAD7 mRNA levels were measured by quantitative real-time PCR. Primer probe set RTS5062 was used to measure human SMAD7 mRNA levels. SMAD7 mRNA levels were adjusted according to total RNA content, as measured by RIBOGREEN®. Results are presented as percent inhibition of SMAD7 mRNA expression, relative to untreated control cells.
The newly designed chimeric antisense oligonucleotides in the Tables below were designed as 3-10-3 cEt gapmers. The gapmers are 16 nucleosides in length, wherein the central gap segment comprises often 2′-deoxynucleosides and is flanked by wing segments on the 5′ direction and the 3′ direction comprising three nucleosides each. Each nucleoside in the 5′ wing segment and each nucleoside in the 3′ wing segment has a cEt sugar modification. The internucleoside linkages throughout each gapmer are phosphorothioate (P═S) linkages. All cytosine residues throughout each gapmer are 5-methylcytosines.
“Start site” indicates the 5′-most nucleoside to which the gapmer is targeted in the human gene sequence. “Stop site” indicates the 3′-most nucleoside to which the gapmer is targeted human gene sequence. […] Some of the oligonucleotides presented were complementary to SMAD7 mRNA sequences RefSeqNo. NM_001190821.1 (designated herein as SEQ ID NO: 3) or RefSeqNo. NM_001190822.1 (designated herein as SEQ ID NO: 4), and are presented in a separate table shown below.

Point of comparison: “790513 (k[5mC]*kA*k[5mC]*d[5mC]*dA*dG*d[5mC]*dT*dG*dA*d[5mC]*dT*d[5mC]*kT*kT*kG; antisense) [compound 790513]”, “% Inhibition” value 10%. Against it:
- 790531 (kT*kG*k[5mC]*dT*dG*dA*dT*dG*dA*dA*d[5mC]*dT*dG*kG*k[5mC]*kG; antisense) [compound 790531] — lower, 8%
- 790533 (kG*kG*k[5mC]*dT*dA*d[5mC]*d[5mC]*dG*dG*d[5mC]*dT*dG*dT*kT*kG*kA; antisense) [compound 790533] — higher, 16%

same assay, conditions: Hep3B cells, electroporation with 10,000 nM antisense oligonucleotide, approximately 24 hours, RTS5062, percent inhibition of SMAD7 mRNA relative to untreated control cells

“790714 (kA*kG*k[5mC]*d[5mC]*dA*dG*dT*dT*dA*dA*dT*d[5mC]*dA*kT*kT*kA; antisense) [compound 790714]” was tested, and the “% Inhibition” value was 11%.

same assay, conditions: Hep3B cells, electroporation with 10,000 nM antisense oligonucleotide, approximately 24 hours, SMAD7 mRNA by RT-PCR (RTS5062), relative to untreated control cells

Point of comparison: “790680 (kG*kG*kT*dG*dA*dG*dT*dA*dA*d[5mC]*d[5mC]*dA*dG*k[5mC]*kT*kG; antisense) [compound 790680]”, “% Inhibition” value 56%. Against it:
- 790510 (k[5mC]*k[5mC]*k[5mC]*d[5mC]*dT*dG*dA*dG*dG*dT*dA*dG*dA*kT*k[5mC]*kA; antisense) [compound 790510] — lower, 33%
- 790515 (k[5mC]*kG*kT*d[5mC]*dA*dG*d[5mC]*dT*dG*dG*dA*dT*dG*k[5mC]*k[5mC]*kG; antisense) [compound 790515] — lower, 26%
- 790532 (kG*k[5mC]*kA*d[5mC]*dG*dG*dG*d[5mC]*dA*dG*d[5mC]*dT*dG*k[5mC]*kT*kG; antisense) [compound 790532] — lower, 0%

same assay, conditions: Hep3B cells, electroporation with 10,000 nM antisense oligonucleotide, approximately 24 hours, primer probe set RTS5062, relative to untreated control cells

Point of comparison: “790617 (k[5mC]*kT*kA*d[5mC]*dA*dA*dT*dG*d[5mC]*dT*dA*dA*dA*kT*kT*kT; antisense) [compound 790617]”, “% Inhibition” value 0%. Against it:
- 790543 (kT*kG*kA*dA*dA*dA*dG*d[5mC]*dA*dA*dG*d[5mC]*dA*k[5mC]*kT*k[5mC]; antisense) [compound 790543] — higher, 23%
- 790545 (kA*kA*kA*dG*dA*dG*dT*dT*dT*dG*d[5mC]*dA*dT*kG*kA*kA; antisense) [compound 790545] — higher, 24%
- 790620 (kT*kA*kA*dT*dA*dA*dA*dT*d[5mC]*dT*d[5mC]*dA*dG*kG*kT*kT; antisense) [compound 790620] — higher, 30%
- 790630 (kG*kG*kA*dA*d[5mC]*dA*dT*dA*dA*dA*d[5mC]*dT*d[5mC]*k[5mC]*kT*kT; antisense) [compound 790630] — the same, 0%
- 790631 (kG*kT*kT*dT*dA*dA*dT*dG*dG*dA*dA*d[5mC]*dA*kT*kA*kA; antisense) [compound 790631] — the same, 0%

Point of comparison: “790695 (kT*kG*kA*dA*dA*dT*dG*dG*dT*dG*d[5mC]*dT*d[5mC]*kT*kG*k[5mC]; antisense) [compound 790695]”, “% inhibition of SMAD7 mRNA expression” value 62%. Against it:
- 790613 (k[5mC]*kA*kT*dT*dT*dA*dA*dA*d[5mC]*d[5mC]*dT*dT*dT*kG*kT*kA; antisense) [compound 790613] — lower, 0%
- 790621 (kG*kT*kG*d[5mC]*dA*dT*d[5mC]*dT*dT*dT*dT*d[5mC]*dT*kT*kT*kA; antisense) [compound 790621] — lower, 0%
- 790623 (kG*k[5mC]*kA*dT*dT*dT*dA*dT*dA*dT*dT*dA*dA*kA*kG*k[5mC]; antisense) [compound 790623] — lower, 0%
- 790626 (kG*kA*kT*dA*dA*d[5mC]*dA*d[5mC]*d[5mC]*d[5mC]*dA*dT*dA*kG*kA*kA; antisense) [compound 790626] — lower, 0%
- 790655 (k[5mC]*kG*kT*dG*dT*dT*dA*dA*dA*dG*d[5mC]*dT*dG*kA*kG*k[5mC]; antisense) [compound 790655] — lower, 42%

same assay, conditions: Hep3B cells, electroporation, 10,000 nM antisense oligonucleotide, approximately 24 hours, RTS5062, relative to untreated control cells

In the case of “790710 (kG*kG*kG*dA*dA*dA*dT*dG*dT*dT*d[5mC]*dT*dA*k[5mC]*k[5mC]*kT; antisense) [compound 790710]”, the “% inhibition of SMAD7 mRNA expression” value is reported as 15%.

same assay, conditions: Hep3B cells, electroporation, 10,000 nM, approximately 24 hours; 3-10-3 cEt gapmers targeting SEQ ID NO: 3 and 4

Point of comparison: “790635 (kG*kG*kA*d[5mC]*dA*dG*dT*d[5mC]*dA*dG*dT*dT*dG*kG*kT*kT; antisense) [compound 790635]”, “% inhibition of SMAD7 mRNA expression” value 40%. Against it:
- 790634 (kA*kG*kT*d[5mC]*dA*dG*dT*dT*dG*dG*dT*dT*dT*kG*kA*kG; antisense) [compound 790634] — lower, 0%

same assay, conditions: SMAD7 mRNA, Hep3B cells, 10,000 nM antisense oligonucleotide, electroporation, approximately 24 hours, primer probe set RTS5062, relative to untreated control cells

Point of comparison: “790679 (kA*kG*kG*dT*dT*dA*dA*dT*d[5mC]*dA*d[5mC]*dT*dT*k[5mC]*k[5mC]*kT; antisense) [compound 790679]”, “% Inhibition” value 13%. Against it:
- 790508 (k[5mC]*kA*k[5mC]*d[5mC]*dA*d[5mC]*dG*d[5mC]*dA*d[5mC]*d[5mC]*dA*dG*kT*kG*kT; antisense) [compound 790508] — lower, 0%
- 790516 (kG*kT*kA*dA*d[5mC]*dT*dG*d[5mC]*dT*dG*d[5mC]*dG*dG*kT*kT*kG; antisense) [compound 790516] — higher, 45%
- 790519 (k[5mC]*kT*kG*dG*dA*dG*dT*d[5mC]*d[5mC]*dG*dG*dG*dT*kT*kG*kT; antisense) [compound 790519] — lower, 8%
- 790521 (kG*kG*k[5mC]*dT*dG*dT*dA*d[5mC]*dG*d[5mC]*d[5mC]*dT*dT*k[5mC]*kT*k[5mC]; antisense) [compound 790521] — higher, 19%
- 790529 (kA*kG*k[5mC]*dT*dG*dA*dT*d[5mC]*dT*dG*d[5mC]*dA*d[5mC]*kG*kG*kT; antisense) [compound 790529] — higher, 65%
- 790537 (kA*kG*k[5mC]*dA*dG*d[5mC]*dA*dA*dA*dG*dT*dA*dG*kT*kT*kT; antisense) [compound 790537] — higher, 27%
- 790604 (kT*kA*k[5mC]*dG*dA*dG*dT*dG*dT*dA*dT*dG*dA*kG*kT*kT; antisense) [compound 790604] — higher, 30%
- 790605 (kA*kT*k[5mC]*dA*dT*dA*d[5mC]*dG*dA*dG*dT*dG*dT*kA*kT*kG; antisense) [compound 790605] — higher, 32%
- 790609 (kG*kT*k[5mC]*dT*dA*dA*dA*d[5mC]*dA*dT*dG*d[5mC]*dT*k[5mC]*kA*kT; antisense) [compound 790609] — higher, 40%
- 790611 (kG*k[5mC]*kT*dT*dA*dT*dG*dT*dT*dA*dA*dA*dG*kT*k[5mC]*kT; antisense) [compound 790611] — higher, 59%
- 790612 (kT*kA*kA*dA*d[5mC]*d[5mC]*dT*dT*dT*dG*dT*dA*dG*kT*kT*kA; antisense) [compound 790612] — higher, 64%
- 790618 (kA*kG*k[5mC]*dA*d[5mC]*dT*dA*d[5mC]*dA*dA*dT*dG*d[5mC]*kT*kA*kA; antisense) [compound 790618] — higher, 24%
- 790637 (kA*k[5mC]*k[5mC]*dT*dA*dG*dT*dT*d[5mC]*dG*d[5mC]*dA*dG*kA*kG*kT; antisense) [compound 790637] — lower, 0%
- 790647 (k[5mC]*kG*k[5mC]*dG*dA*dG*dG*d[5mC]*dG*dG*dT*dG*dA*kT*kT*kG; antisense) [compound 790647] — higher, 24%
- 790652 (k[5mC]*kA*k[5mC]*d[5mC]*dA*dG*dT*dT*dG*dG*dT*dT*dT*kG*kA*kG; antisense) [compound 790652] — higher, 25%
- 790659 (kT*kG*k[5mC]*d[5mC]*dA*dG*dT*d[5mC]*dT*d[5mC]*dA*dA*dA*kT*kG*kG; antisense) [compound 790659] — higher, 27%
- 790674 (kT*kG*k[5mC]*dT*dA*d[5mC]*d[5mC]*dT*dA*dA*dT*dG*dT*k[5mC]*kA*kA; antisense) [compound 790674] — higher, 40%
- 790678 (kT*k[5mC]*k[5mC]*dT*dA*dT*dT*dG*dG*d[5mC]*dT*dG*dA*kT*k[5mC]*kT; antisense) [compound 790678] — higher, 46%
- 790693 (k[5mC]*kA*kA*dA*dG*dT*dA*dT*dA*d[5mC]*d[5mC]*dT*dG*kT*kT*k[5mC]; antisense) [compound 790693] — higher, 45%
- 790696 (k[5mC]*kA*kA*dA*dG*dG*dT*dA*dA*dG*d[5mC]*d[5mC]*dA*kG*k[5mC]*kT; antisense) [compound 790696] — higher, 41%
- 790697 (kA*kT*kT*d[5mC]*dA*dG*dG*dG*dT*dG*dT*d[5mC]*dA*kG*k[5mC]*k[5mC]; antisense) [compound 790697] — higher, 59%
- 790701 (kG*kG*kA*dT*dA*d[5mC]*dA*d[5mC]*dT*dT*dA*dA*dT*k[5mC]*kA*kA; antisense) [compound 790701] — higher, 57%
